Test results from publication PMC11202169, “A Novel Fluorescence-Based Microplate Assay for High-Throughput Screening of hSULT1As Inhibitors” (Biosensors, 2024).
Where two headings read alike, the source gives them in different places.

How the values were obtained:
Format in all cases: biochemical
hSULT1A1 = target: T1, hSULT1A1 (Homo sapiens, UniProt P50225); assay: Fluorescence-based microplate inhibition assay, hSULT1A1-catalyzed HN-241 4-O-sulfation; conditions: for activity at 1 µM: read-out: Residue activity (%) hSULT1A1;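 for all read-outs here: reaction started with 200 µM PAPS at 37 °C, fluorescence read continuously (Ex 350 nm, Em 450 nm), activity expressed relative to DMSO-only control without inhibitor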
T1 construct: 6-histidine tag (N); TEV site (N); made in house; host or cells: Escherichia coli BL21 (DE3), pET29a(+)

hSULT1A2 = target: T2, hSULT1A2 (Homo sapiens, UniProt P50226); assay: Fluorescence-based microplate inhibition assay, hSULT1A2-catalyzed HN-241 4-O-sulfation; conditions: for remaining activity at 10 µM: 0.25 h, read-out: Residue activity (%) hSULT1A2
T2 construct: 6-histidine tag (N); TEV site (N); made in house; host or cells: Escherichia coli BL21 (DE3), pET29a(+)

hSULT1A3 = target: T3, hSULT1A3 (Homo sapiens, UniProt P0DMM9); assay: Fluorescence-based microplate inhibition assay, hSULT1A3-catalyzed HN-241 4-O-sulfation; conditions: for activity at 10 µM: read-out: Residue activity (%) hSULT1A3
T3 construct: 6-histidine tag (N); TEV site (N); made in house; host or cells: Escherichia coli BL21 (DE3), pET29a(+)

[1] = test compound 1 μM, HN-241 1 μM, 15 min
[2] = test compound 10 μM, HN-241 5 μM, 15 min
[3] = test compound 10 μM, HN-241 10 μM, 15 min

T3 sequence (P0DMM9 whole entry): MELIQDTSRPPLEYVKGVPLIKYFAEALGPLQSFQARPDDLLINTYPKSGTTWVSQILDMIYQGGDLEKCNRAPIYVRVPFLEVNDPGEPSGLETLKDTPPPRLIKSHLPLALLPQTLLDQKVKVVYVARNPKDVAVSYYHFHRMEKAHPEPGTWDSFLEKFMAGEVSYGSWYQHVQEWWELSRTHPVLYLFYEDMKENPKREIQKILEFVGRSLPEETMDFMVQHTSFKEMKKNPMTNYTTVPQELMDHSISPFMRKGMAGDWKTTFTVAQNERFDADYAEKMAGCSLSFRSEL
T1 sequence (P50225 whole entry): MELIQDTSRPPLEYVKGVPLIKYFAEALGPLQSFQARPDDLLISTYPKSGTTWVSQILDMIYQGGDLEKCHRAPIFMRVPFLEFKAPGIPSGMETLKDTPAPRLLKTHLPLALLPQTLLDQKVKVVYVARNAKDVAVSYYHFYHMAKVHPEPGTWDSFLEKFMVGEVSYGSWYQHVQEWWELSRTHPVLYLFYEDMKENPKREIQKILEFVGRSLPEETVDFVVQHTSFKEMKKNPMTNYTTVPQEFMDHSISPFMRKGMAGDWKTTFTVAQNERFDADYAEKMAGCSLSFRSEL
T2 sequence (P50226 whole entry): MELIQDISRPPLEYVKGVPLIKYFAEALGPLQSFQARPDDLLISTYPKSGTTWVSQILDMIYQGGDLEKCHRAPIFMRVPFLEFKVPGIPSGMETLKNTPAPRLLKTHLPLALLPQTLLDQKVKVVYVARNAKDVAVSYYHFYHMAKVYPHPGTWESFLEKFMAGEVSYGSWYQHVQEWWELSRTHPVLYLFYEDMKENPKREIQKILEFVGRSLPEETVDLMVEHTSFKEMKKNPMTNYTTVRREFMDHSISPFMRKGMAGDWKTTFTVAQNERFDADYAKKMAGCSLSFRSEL

Row | SMILES | activity at 1 µM (hSULT1A1; [1]) [%] | remaining activity at 10 µM (hSULT1A2; [2]) [%] | activity at 10 µM (hSULT1A3; [3]) [%] | Residue activity (%) hSULT1A1 (hSULT1A1; [1]) [%] | Residue activity (%) hSULT1A2 (hSULT1A2; [2]) [%] | Residue activity (%) hSULT1A3 (hSULT1A3; [3]) [%] | also measured
1 | O=C1C[C@@H](c2ccc(O[C@@H]3O[C@H](CO)[C@@H](O)[C@H](O)[C@H]3O)cc2)Oc2cc(O)ccc21 [Liquiritin] | 100 | 95.1 | 100 | – | – | – | –
2 | CC1(C)[C@@H](O[C@H]2O[C@H](C(=O)O)[C@@H](O)[C@H](O)[C@H]2O[C@@H]2O[C@H](C(=O)O)[C@@H](O)[C@H](O)[C@H]2O)CC[C@]2(C)[C@H]3C(=O)C=C4[C@@H]5C[C@@](C)(C(=O)O)CC[C@]5(C)CC[C@@]4(C)[C@]3(C)CC[C@@H]12 [Glycyrrhizic acid] | 106 | 112 | 121 | – | – | – | –
3 | CC(C)=CCC[C@@](C)(O)[C@H]1CC[C@]2(C)[C@@H]1[C@H](O)C[C@@H]1[C@@]3(C)CC[C@H](O)C(C)(C)[C@@H]3[C@@H](O[C@@H]3O[C@H](CO)[C@@H](O)[C@H](O)[C@H]3O[C@@H]3OC[C@@H](O)[C@H](O)[C@H]3O)C[C@]12C [20(R)-Notoginsenoside R2] | – | – | – | 110.54 | 109.60 | 100.25 | –
4 | C[C@]12CC[C@H](O)C[C@H]1CC[C@@H]1[C@@H]2CC[C@]2(C)[C@@H](c3ccc(=O)oc3)CC[C@]12O [Bufalin] | – | – | – | – | – | – | activity at 1 µM (hSULT1A1): 103%; remaining activity at 10 µM (hSULT1A2): 106%; activity at 10 µM (hSULT1A3): 124%
5 | COc1cc(O)c2c(c1)C(=O)c1cc(C)cc(O)c1C2=O [Emodin-3-methyl ether] | – | – | – | 54.41 | 89.81 | 103.18 | –
6 | C[C@]12CC[C@H](O)C[C@@]1(O)CC[C@@H]1[C@@H]2CC[C@]2(C)[C@@H](c3ccc(=O)oc3)CC[C@]12O [3β,5,14-Trihydroxy-5β-bufa-20,22-dienolide] | – | – | – | 121.35 | 109.91 | 114.49 | –
7 | Cc1c2[n+](cc3cc4c(cc13)OCO4)CCc1cc3c(cc1-2)OCO3 [Worenine] | – | – | – | 101.91 | 92.89 | 125.56 | –
8 | CC(C)=CCC[C@@](C)(O)[C@H]1CC[C@]2(C)[C@@H]1[C@H](O)C[C@@H]1[C@@]3(C)CC[C@H](O[C@@H]4O[C@H](CO)[C@@H](O)[C@H](O)[C@H]4O)C(C)(C)[C@@H]3CC[C@]12C [20(R)-Ginsenoside Rh2] | – | – | – | 98.01 | 114.69 | 116.23 | –
9 | CC(C)=CCC[C@](C)(O)[C@H]1CC[C@]2(C)[C@@H]1[C@H](O)C[C@@H]1[C@@]3(C)CC[C@H](O)C(C)(C)[C@@H]3CC[C@]12C [(20S)-Protopanaxdiol] | – | – | – | 99.75 | 95.73 | 81.62 | –
10 | C=C(C)[C@H]1Cc2c(ccc3c2O[C@@H]2COc4cc(OC)c(OC)cc4[C@@H]2C3=O)O1 [Rotenone] | – | – | – | – | – | – | activity at 1 µM (hSULT1A1): 109%; remaining activity at 10 µM (hSULT1A2): 102%; activity at 10 µM (hSULT1A3): 106%
11 | Cc1cc(O)c2c(c1)C(=O)c1cccc(O)c1C2=O [Chrysophanic acid] | 3.52 | 45.4 | 99.3 | – | – | – | –
12 | O=c1cc(-c2ccc(Oc3c(O)cc4oc(-c5ccc(O)cc5)cc(=O)c4c3O)cc2)oc2cc(O)cc(O)c12 [Hinokiflavone] | 0 | 0 | 9.46 | – | – | – | IC50 (hSULT1A1; hSULT1A1-catalyzed HN-241 4-O-sulfation): 18.9 ± 1.17 nM; IC50 (hSULT1A2; hSULT1A2-catalyzed HN-241 4-O-sulfation): 110 ± 14.7 nM; IC50 (hSULT1A3; hSULT1A3-catalyzed HN-241 4-O-sulfation): 2130 ± 182 nM
13 | CC(C)=CCC[C@](C)(O)[C@H]1CC[C@]2(C)[C@@H]1[C@H](O)C[C@@H]1[C@@]3(C)CC[C@H](O[C@@H]4O[C@H](CO)[C@@H](O)[C@H](O)[C@H]4O)C(C)(C)[C@@H]3CC[C@]12C [20(S)-Ginsenoside Rh2] | – | – | – | 85.94 | 110.74 | 105.44 | –
14 | O=C(/C=C/c1ccccc1)c1ccccc1 [trans-Chalcone] | – | – | – | 71.86 | 91.40 | 116.88 | –
15 | Cc1c(O)c(C)c2c(c1O)C(=O)[C@H](Cc1ccc3c(c1)OCO3)CO2 [Methylophiopogonanone A] | – | – | – | 28.87 | 0.52 | 79.90 | –

Continued, in another order:

Row | activity at 1 µM (hSULT1A1; [1]) [%] | remaining activity at 10 µM (hSULT1A2; [2]) [%] | activity at 10 µM (hSULT1A3; [3]) [%] | SMILES | Residue activity (%) hSULT1A1 (hSULT1A1; [1]) [%] | Residue activity (%) hSULT1A2 (hSULT1A2; [2]) [%] | Residue activity (%) hSULT1A3 (hSULT1A3; [3]) [%] | also measured
16 | 0.08 | 4.43 | 39.8 | O=c1c(O)c(-c2cc(O)c(O)c(O)c2)oc2cc(O)cc(O)c12 [Myricetin] | – | – | – | –
17 | 127 | 101 | 114 | CC1(C)CC[C@]2(C(=O)O)CC[C@]3(C)C(=CC[C@@H]4[C@@]5(C)CC[C@H](O)C(C)(C)[C@@H]5CC[C@]43C)[C@@H]2C1 [Oleanolic acid] | – | – | – | –
18 | 3.26 | 41.7 | 59.7 | O=C1c2c(O)cc(O)cc2OC(c2ccc(O)c(O)c2)C1O (stereo not drawn) [Taxifolin] | – | – | – | –
